Experiments:
N2a cells = experiment: Cell viability (resazurin) in N2a cells; type: cell-based
Experimental: Figure 6 Cellular toxicity studies of compounds 16-8 and 16-19. N2a cells were subjected to increasing concentrations of compounds 16-8 and 16-19, resulting cell viability was analyzed for the next 48 h. (A) Time course of cell viability in the presence of various concentrations of 16-8. […] Representative result of 2 independent experiments.
N2a cells were cultured in 96 well plates for 24–48 h. Cell viability studies relied on metabolic capability monitored with the indicator dye resazurin. Its reduction to resorufin (indicated by color change dark blue to pink) was monitored over time. Changes in absorbance at λ = 570 nm were recorded using a microplate reader (Molecular Devices). […] Eight replicate cultures per experimental point were studied.

[1] = Compound concentration in organs and plasma by LC-MS/MS; type: in vivo, mouse; conditions: 10 mg/kg i.p.
Experimental: Mice were treated with 10 mg/kg i.p. of the respective inhibitor. Post-euthanasia harvested tissue was frozen in liquid nitrogen and stored at −80 °C for further analysis.
Frozen tissue samples were partially thawed and cut into 1 mm slices, 5–15 mg tissue, 2-fold excess water (mass/vol.), 6-fold excess acetonitrile (16-… compounds) or methanol (GSK205) containing appropriate amount of internal standard, and 2.5 mm zirconia/silica bead (Biospec Products Inc.) were added to 500- μL polypropylene (PP) conical tube, homogenized in a Fast-Prep apparatus (Thermo-Savant) at speed “4” for 20 sec at room temp, and centrifuged at 13,600 g for 5 min at room temp. Depending on the expected concentration range of the measured compound, the supernatant was diluted 1/4–1/20 (in Mobile phase A, see below) and placed in autosampler for LC-MS/MS analysis.
The LC-MS/MS assay for 16-… compounds and GSK205 was developed on an Agilent 1200 series LC system interfaced with Applied Biosystems API 5500QTrap, a hybrid triple quadruple-linear trap MS/MS spectrometer. Analyst (version 1.6.1) software was used for mass parameters tuning, data acquisition, and quantification. LC column: 3 × 4 mm RP C18 (Phenomenex, AJ0-4287) was operated at 35 °C. Mobile phase A: 0.1% formic acid, 2% acetonitrile, in LC/MS-grade water; mobile phase B: acetonitrile; flow rate: 1 mL/min, 1:1 MS/MS:waste split. Run time was 4 min. Diverter valve was used to send flow to MS/MS only between 1.2 and 2.5 min. The elution gradient was: 0–0.5 min, 1%B; 0.5–1.2 min, 1–95%B; 1.2–1.5 min, 95%B; 1.5–1.6 min, 95–1%B. Autosampler was operated at 4 °C; injection volume was kept at 10–50 μL. Electrospray ionization (ESI) source parameters were: positive ionization mode, curtain gas flow = 30, ionization potential = 5500 V, temperature = 500 °C, nebulizing gas 1 flow = 30, nebulizing gas 2 = 30, declustering potential = 20 V. 16-… compounds and GSK205 were individually infused as 100 nM solutions in 50%A/50%B at 10 μL/min flow rate and parameters optimized to provide maximal ion count for “parent” and collision-produced (“daughter”) MS/MS ions. Parent/daughter quantifier [qualifier] ions utilized: GSK205 (401.1/280[370]), 16-8 (400.1/279.1[91.1], 16-16 (387.1/280[105]), 16-18 (415.2/280[370], 16-19 (414.1/279.2[91.1]. Standard (analyte of interest)/internal standard pairs utilized: GSK205/16-16, 16-8/16-16, 16-18/GSK205, 16-19/16-8.
Calibration samples (n = 6) were prepared by adding pure standard of the measured compound to tissue homogenate (tissue + 2-fold excess water, mass/vol) in the appropriate range needed for the particular dosing regime. Organs studied were analyzed alongside the study samples. […] Peak integration, calibration, and quantification was performed within Analyst software. […]

TRPV4 = TRPV4 (Rattus norvegicus, UniProt Q9ERZ8); conditions: for inhibition of TRPV4-mediated Ca++ influx / average peak ∆Ca++ concentration: 5 μM inhibitor, GSK101 5 nM; for average peak ∆Ca++ concentration: ≈100 cells, vehicle control 1156; for increased potency over GSK205: from TRPV4 IC50 values
Experimental: We assessed TRPV4-inhibitory potency of these synthetic compounds in a Ca^++ imaging assay in neuronal 2a (N2a) permanent tissue culture cells with directed expression of mammalian (rat) TRPV4. […] For first round assessment, all TRPV4-inhibitory compounds were used at 5 μM (Fig. 2A).
(A) Ca^++ imaging screening of all compounds in N2A cells with directed expression of TRPV4 (rat). […] The number on each bar corresponds to average peak ∆Ca^++ concentrations in ≈100 cells. Inset: micrographs of pseudo-colored cells before and after activation with 5nM GSK101, in addition note the corresponding time course of the averaged Ca^++ signal (fura-2 Ca^++ imaging). […] Plot generated from averaged peak ∆Ca^++ concentration of ≥75 cells per data-point.
TRPV4-eGFP from rat was used, previously found to respond to stimulation with GSK101 and hypotonicity in similar manner as native, non-fused TRPV4.

TRPV2 = biological target: T1, TRPV2 (Mus musculus, UniProt Q9WTR1); experiment: Ca++ imaging in N2a cells over-expressing TRPV2 (hypotonicity); conditions: 5 μM
T1 sequence (Q9WTR1 1-756): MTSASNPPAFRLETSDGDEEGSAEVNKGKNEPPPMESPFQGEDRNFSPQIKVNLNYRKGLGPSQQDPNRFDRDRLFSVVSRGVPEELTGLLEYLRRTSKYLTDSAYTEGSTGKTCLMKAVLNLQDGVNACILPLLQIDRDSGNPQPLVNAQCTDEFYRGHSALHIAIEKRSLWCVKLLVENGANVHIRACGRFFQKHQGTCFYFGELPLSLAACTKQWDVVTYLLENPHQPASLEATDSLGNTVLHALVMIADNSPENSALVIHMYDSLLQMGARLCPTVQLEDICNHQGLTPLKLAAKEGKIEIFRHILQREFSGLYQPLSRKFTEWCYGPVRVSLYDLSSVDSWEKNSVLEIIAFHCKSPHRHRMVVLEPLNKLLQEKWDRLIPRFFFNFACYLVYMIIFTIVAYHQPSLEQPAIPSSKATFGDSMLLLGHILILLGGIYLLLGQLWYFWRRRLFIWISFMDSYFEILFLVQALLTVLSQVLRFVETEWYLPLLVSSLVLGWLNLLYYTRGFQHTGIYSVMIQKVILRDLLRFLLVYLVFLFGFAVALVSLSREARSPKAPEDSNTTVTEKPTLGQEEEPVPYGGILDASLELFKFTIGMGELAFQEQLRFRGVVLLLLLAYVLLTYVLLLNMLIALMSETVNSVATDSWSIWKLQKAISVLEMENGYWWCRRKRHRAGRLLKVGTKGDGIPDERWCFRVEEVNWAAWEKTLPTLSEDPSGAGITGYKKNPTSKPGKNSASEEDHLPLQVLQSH
Experimental: (A) Specificity vs TRPV1-3. […] Mean±SEM is shown, ≥100 cells per condition. […] Plot generated from averaged peak ∆Ca^++ concentration of ≥75 cells per data-point.
N2a cells were used for directed expression of TRP ion channels as described previously[13]. […] All other channels were native channels from mouse, eGFP was co-transfected. […] Ca^++ imaging was performed as described previously[13][14][34].

Sequence of TRPV4 (Q9ERZ8 whole entry): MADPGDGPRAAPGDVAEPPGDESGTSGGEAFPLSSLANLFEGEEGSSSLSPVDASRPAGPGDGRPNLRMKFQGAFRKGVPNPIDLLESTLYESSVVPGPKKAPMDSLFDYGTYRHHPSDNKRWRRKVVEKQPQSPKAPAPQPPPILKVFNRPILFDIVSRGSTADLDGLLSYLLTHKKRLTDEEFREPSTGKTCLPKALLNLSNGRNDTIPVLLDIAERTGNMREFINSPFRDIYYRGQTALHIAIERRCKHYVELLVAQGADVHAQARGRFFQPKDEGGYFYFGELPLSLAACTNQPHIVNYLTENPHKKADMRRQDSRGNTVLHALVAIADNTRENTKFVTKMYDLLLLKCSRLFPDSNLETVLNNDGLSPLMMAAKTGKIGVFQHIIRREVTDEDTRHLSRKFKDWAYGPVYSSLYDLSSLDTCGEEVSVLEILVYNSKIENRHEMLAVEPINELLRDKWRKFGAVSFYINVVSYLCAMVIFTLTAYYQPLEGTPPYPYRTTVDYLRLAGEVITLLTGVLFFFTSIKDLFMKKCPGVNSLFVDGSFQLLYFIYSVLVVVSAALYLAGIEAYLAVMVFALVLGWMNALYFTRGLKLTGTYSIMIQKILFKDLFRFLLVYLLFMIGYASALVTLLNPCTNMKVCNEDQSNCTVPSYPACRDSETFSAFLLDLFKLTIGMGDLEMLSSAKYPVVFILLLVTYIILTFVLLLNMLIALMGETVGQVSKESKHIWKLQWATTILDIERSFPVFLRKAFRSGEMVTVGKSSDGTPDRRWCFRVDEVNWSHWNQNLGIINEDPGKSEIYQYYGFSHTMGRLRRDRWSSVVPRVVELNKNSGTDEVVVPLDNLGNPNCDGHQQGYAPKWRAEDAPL

## CN(CCc1ccc(Nc2nc(-c3ccccc3)cs2)cc1)Cc1ccccc1 [16-8]
N2a cells
  cellular toxicity vs inhibitory potency against TRPV4/TRPA1, factor: 50–100
N2a cells; increasing concentrations, followed for 48 h
  cell viability: clear reduction at 40 and 80 μM
[1]; after one hour
  concentration in fat and pancreas: above its IC50
TRPV4
  IC50: 0.45 ± 0.05 µM
  inhibition of TRPV4-mediated Ca++ influx: virtually eliminated Ca^++ influx
  average peak ∆Ca++ concentration: 6 nM
  increased potency over GSK205: approximately 10 fold
TRPV2
  inhibition of TRPV2: did not inhibit

## CCN(CCc1ccc(Nc2nc(-c3ccccc3)cs2)cc1)Cc1ccccc1 [16-19]
N2a cells
  cellular toxicity vs inhibitory potency against TRPV4/TRPA1, factor: 50–100
[1]; 1 h
  concentration in non-nervous tissue, especially liver and kidney, comparison of compounds: higher concentrations
[1]; several organs
  concentration at 6 h time-point compared to 1 h time-point: 10-20 fold
  concentration at 24 h time-point: lower than at the 6 h but higher than at the 1 h time-point
TRPV4
  inhibition of TRPV4-mediated Ca++ influx: virtually eliminated Ca^++ influx
  average peak ∆Ca++ concentration: 8 nM
  increased potency over GSK205: ~8 fold
TRPV2
  inhibition of TRPV2: did not inhibit

Source: article PMC4887995, “Small molecule dual-inhibitors of TRPV4 and TRPA1 for attenuation of inflammation and pain” (Scientific Reports, 2016)
